Assay results taken from publication PMC11170759, “Advancing Parkinson’s Disease Diagnostics: The Potential of Arylpyrazolethiazole Derivatives for Imaging α-Synuclein Aggregates” (ACS Omega, 2024).
Values joined by “and” are separate entries in the source; they are usually repeats but may differ in a detail not shown here. Equal entries are not always repeated.

How the values were obtained:
[1] = target: T1, synthetic human Aβ1–42 fibrils (Homo sapiens, UniProt P05067); test: In vitro competition binding assay against [3H]MODAG-001 on Aβ1–42 fibrils; conditions: for Ki: competition against 1 nM [3H]MODAG-001, Aβ1–42 fibrils 1 μM, mean Ki ± SEM
T1 construct: Synthetic lyophilized human Aβ1–42 peptide; purchased EMC Microcollections GmbH (Tuebingen, Germany); host or cells: chemical synthesis
T1 sequence (P05067 672-713): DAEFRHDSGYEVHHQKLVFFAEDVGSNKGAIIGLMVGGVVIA
Method: (§1) The APT library underwent in vitro testing to evaluate its binding affinity to human recombinant α-syn fibrils. Promising compounds were further tested on Aβ fibrils. […] Since the DPP and APT class of compounds share similarities, the APT library was tested in a competition binding assay with [^3H]MODAG-001 to determine its relative binding affinity and inhibition constant (Ki). The binding assay measured the displacement of the radioligand by increasing concentrations of competitor compounds, using fixed concentrations of fibrils and radioligand.
α-Syn fibrils were generated as the previously reported method.[30] The generation of Aβ1–42 fibril was adapted from Bagchi et al. and previously described by Kuebler et al.[16],[31] Synthetic lyophilized human Aβ1–42 peptide with >90% purity purchased from EMC Microcollections GmbH (Tuebingen, Germany) was dissolved in dimethyl sulfoxide (DMSO; 5 mg in 221.5 μL). Deionized water (4.1 mL) and 1 M Tris–HCl (111 μL, pH 7.6) were added to obtain a final monomeric concentration of 250 μM. Aggregation was induced by incubating the monomers in Eppendorf Thermomixer at 37 °C with shaking at 800 rpm for 72 h. Generated fibrils were sonicated for 3 min in a water bath (Elmasonic S 60H, Elma Schmidbauer GmbH, Singen, Germany). The final products were aliquoted, frozen on dry ice, and stored at −80 °C until use. Aβ1–42 fibril quality was evaluated via thioflavin (ThT) fluorescence and radioligand saturation assay with [^3H]PiB and [^3H]MODAG-001.
(§2) The dissociation constant (Kd) values of [^3H]MODAG–001 for human recombinant α-syn and synthetic human Aβ1–42 fibrils have previously been determined using saturation binding assays.[30] To determine the relative binding affinity (inhibition constant, Ki) of test compounds, competition binding assays of [^3H]MODAG-001 were performed. […] Human recombinant α-syn (50 nM) and synthetic human Aβ1–42 fibrils (1 μM) diluted in PBS (Gibco DPBS, no calcium, no magnesium, Thermo Fisher Scientific, Waltham, MA, USA) were incubated with increasing concentrations of test compounds (5 pM to 10 μM) against 1 nM [^3H]MODAG–001 in 30 mM Tris–HCl, 0.1% bovine serum albumin, and 0.05% Tween20 in 96-well micro test low-binding plates (ratiolab GmbH, Dreieich, Germany) to a total volume of 200 μL/well. Plates were incubated on a shaker (MaxQ 6000, Thermo Fisher Scientific Inc., Marietta, OH, USA) at 50 rpm for 2 h at 37 °C, covered by removable sealing tapes (PerkinElmer, Waltham, MA, USA). Vacuum filtration and read-out were performed as previously reported (Kuebler, Buss et al. 2021). Briefly, a glass fiber Filtermat B (PerkinElmer, Waltham, MA, USA) incubated with 0.5% polyethylenimine (PEI; Sigma-Aldrich Chemie GmbH, Taufkirchen, Germany) for 30 min at 4 °C before filter harvesting was used with a FilterMate Harvester (PerkinElmer, Waltham, MA, USA). Melt-on scintillator sheets (MeltiLex B/HS, PerkinElmer, Waltham, MA, USA) were molten onto dried filters. Accumulation of tritium was counted in a liquid scintillation Wallac MicroBeta TriLux counter (PerkinElmer, Waltham, MA, USA) at 2 min per well. Radioactivity in counts per minute for each concentration of the test compound was normalized to the radioactivity obtained in the absence of the test compound for conversion to percentage binding of the reference tracer. The resulting values were plotted against increasing concentrations of the test compounds. Data points were fitted using nonlinear regression analysis in GraphPad Prism (GraphPad Software, Inc., Version 8.4.0, La Jolla, CA, USA). The binding curve for [^3H]MODAG-001 saturation assay on α-syn fibrils is reported in the Supporting Information (Figure S6).

[2] = target: human recombinant α-syn fibrils (Homo sapiens, UniProt P37840); test: In vitro competition binding assay against [3H]MODAG-001 on α-syn fibrils; conditions: for Ki: competition against 1 nM [3H]MODAG-001, α-syn fibrils 50 nM, mean Ki ± SEM; for binding affinity to α-syn fibrils (in words): competition against [3H]MODAG-001; for selectivity for α-syn over Aβ: ratio of Ki Aβ to Ki α-syn fibrils
Method: as §1, §2

α-synuclein aggregates = target: α-synuclein aggregates; parameters: method as in PMID 34577548; conditions: literature ligands of Figure 1; read-out: Ki α-syn; cited from earlier work
Aβ1-42 = target: Aβ1-42; parameters: method as in PMID 34577548; conditions: literature ligands of Figure 1; cited from earlier work
Aβ1-42 fibrils = target: Aβ1-42 fibrils; parameters: method as in PMID 33369690; conditions: saturation binding, recombinant fibrils; read-out: Kd Aβ1-42 (reported); cited from earlier work
α-syn fibrils = target: α-syn fibrils; parameters: method as in PMID 33369690; conditions: saturation binding, recombinant fibrils; cited from earlier work
Serum stability assay = assay type: in vitro ADME; conditions: 37 °C, within 90 min
Method: Human serum was obtained from human male AB plasma, USA origin, sterile-filtered (Sigma-Aldrich, St. Louis, MO, USA).
The tracer formulation was mixed with an equal volume of human serum (250 μL) and incubated into a thermo-shaker at 37 °C, 300 rpm. At different time points (0, 15, 30, 60, and 90 min), 70 μL samples were drawn and mixed with ice-cold acetonitrile (1:1 dilution) and quickly vortexed. The dilute sample was incubated for 2 min on ice and centrifuged (MiniSpin centrifuge, Eppendorf) for 2 min at 13,400 rpm. An aliquot of the supernatant (120 μL) was analyzed by analytical radio-HPLC on a Luna C18(2), 5 μm, 250 × 4.6 mm column with 35% ACN in 0.1% aqueous TFA as mobile phase and at a flow rate of 1.5 mL/min in 10 min. The radiolabeled product was eluted at a retention time of 5.9 ± 0.2 min (Figure S5).

[3] = In vivo PET/MR imaging in healthy wild-type mice; parameters: species or system mice (C57BL/6J); conditions: iv
Method: To assess the pharmacokinetic profile of [^11C]APT-13 in vivo, wild-type mice (n = 3) were iv injected, and the organ distribution was assessed over 60 min with dynamic PET and anatomical MR imaging (Figure 7A). […] Tracer clearance was largest through the liver (SUV ≈ 5), and high uptake was also observed in the heart (SUV ≈ 6) and lungs (SUV ≈ 5). Uptake with fast clearance was also observed in the kidney, indicating renal excretion within the first few minutes (Figure 7C).
To evaluate the pharmacokinetics of [^11C]APT-13, PET and subsequent MRI scans were performed in healthy mice (female, 21 weeks old, C57BL/6J) to determine brain uptake and washout as well as organ uptake of the liver, lungs, heart, kidneys, and brain. Scans were performed in a small animal Inveon PET scanner (Siemens Healthcare, Erlangen, Germany) and a 7T small animal MRI scanner (Bruker BioSpin GmbH, Ettlingen, Germany). The mice (n = 3) were anesthetized with 1.5% isoflurane evaporated in 100% oxygen at a flow of 0.8 L/min, and a catheter was placed in the tail vein. The body temperature was kept at 37 °C by using a feedback temperature control unit for a heat pump that was connected to the PET bed. Five seconds after the start of the PET acquisition, 15.2 ± 0.5 MBq (410 ± 13 μCi) of [^11C]APT-13 was injected intravenously. PET data were acquired in a dynamic scan for 60 min plus an extra 13 min of transmission measurement with a ^57Co-source for attenuation correction. Subsequently, mice were placed in the same bed position in the MRI, and an anatomical scan was performed using a Turbo RARE T2 sequence. For analysis, the 60 min of acquired PET data were divided into 39-time frames (12 × 5, 6 × 10, 6 × 30, 5 × 60, and 10 × 300 s) and reconstructed using the OSEM3D reconstruction algorithm. The PET scans were coregistered to the whole-body MRI scan using PMOD software (version 4.203; PMOD Technologies, Zürich, Switzerland), and the volume of interest (VOI) of the different organs (liver, lungs, heart, kidney, and brain) were hand-drawn according to the anatomical localization. VOI were selected from the mouse brain atlas in PMOD, time activity curves were extracted, and SUV were calculated by normalizing to the injected activity and animal weight.

[4] = LogD determination (octanol/PBS); assay type: physicochemical; conditions: n = 3
Method: The logD was calculated experimentally by adding [^11C]APT-13 (1.5 MBq) to a 1.5 mL Eppendorf vial containing 500 μL of octanol (OCT) and 500 μL of PBS. The vial was vigorously vortexed and then, to achieve effective phase separation, centrifuged. Aliquots of 350 μL were collected from both OCT and PBS phases. The OCT sample was further washed with 350 μL of PBS; the phases mixture was shaken and centrifuged, and 200 μL of both phases were taken into new reaction tubes. The amount of radioactivity in each sample was quantified using a γ-counter. The log OCT/PBS values were calculated from the mean of n = 3 determinations (Table S3).
Table S3. Results from LogD determination assay.
C-11 CPM Description Mean value Mean value * dil

SMILES: CNc1ccc(/C=C/C(=O)c2nc(Br)cs2)cc1 [APT-12, (E)-1-(4-Bromothiazol-2-yl)-3-(4-(methylamino)phenyl)prop-2-en-1-one]
- Ki [1]: 587 nM
- Ki [2]: 198 ± 142 nM

SMILES: c1coc(-c2cc(-c3ccc4c(c3)OCO4)n[nH]2)n1 [APT-2, 2-(3-(Benzo[d][1,3]dioxol-5-yl)-1H-pyrazol-5-yl)oxazole]
- Ki [2]: 134 nM

SMILES: CN(C)c1ccc(-c2cc(-c3nccs3)[nH]n2)cc1 [APT-5, N,N-Dimethyl-4-(5-(thiazol-2-yl)-1H-pyrazol-3-yl)aniline]
- Ki [2]: 217 nM

SMILES: CNc1ccc(-c2cc(-c3nc(Br)cs3)[nH]n2)cc1 [APT-13, 4-(5-(4-Bromothiazol-2-yl)-1H-pyrazol-3-yl)-N-methylaniline]
- Ki [1]: 92.6 ± 48.8 nM
- Ki [2]: 27.8 ± 9.7 nM

SMILES: COc1ccc(/C=C/c2cc(-c3nccs3)on2)cc1 [11b]
- Ki (α-synuclein aggregates): 18.5 ± 9.2 nM
- Ki (Aβ1-42): 91.5 ± 58.7 nM

SMILES: Cn1nc(-c2ccc3c(c2)OCO3)cc1-c1nccs1 [APT-8, 2-(3-(Benzo[d][1,3]dioxol-5-yl)-1-methyl-1H-pyrazol-5-yl)thiazole]
- Ki [2]: > 14200 nM

SMILES: Cn1nc(-c2ccc3c(c2)OCO3)cc1-c1nc(Br)cs1 [APT-14, 2-(3-(Benzo[d][1,3]dioxol-5-yl)-1-methyl-1H-pyrazol-5-yl)-4-bromothiazole]
- binding affinity to α-syn fibrils (in words) [2]: loss of competition

SMILES: c1csc(-c2cc(-c3ccc4c(c3)OCO4)n[nH]2)n1 [APT-1, 2-(3-(Benzo[d][1,3]dioxol-5-yl)-1H-pyrazol-5-yl)thiazole]
- Ki [1]: 561 nM
- binding to Aβ fibrils (in words) ([1]; competition against [3H]MODAG-001): significantly lower binding
- Ki [2]: 145 ± 46 nM
- binding affinity to α-syn fibrils (in words) [2]: moderate affinity

SMILES: CNc1ccc(/C=C/C(=O)c2nccs2)cc1 [APT-11, (E)-3-(4-(Methylamino)phenyl)-1-(thiazol-2-yl)prop-2-en-1-one]
- Ki [1]: 377 nM
- Ki [2]: 1010 ± 34 nM

SMILES: Fc1ccc(-c2csc(-c3nc(-c4cnc5c(c4)OCO5)cs3)n2)cn1 [d8]
- Ki (α-synuclein aggregates): 0.1 nM
- Ki (Aβ1-42): 386 nM

SMILES: Brc1csc(-c2cc(-c3ccc4c(c3)OCO4)n[nH]2)n1 [APT-4, 2-(3-(Benzo[d][1,3]dioxol-5-yl)-1H-pyrazol-5-yl)-4-bromothiazole]
- Ki [1]: 1030 ± 562 nM
- Ki [2]: 50 nM and 49.7 nM
- selectivity for α-syn over Aβ [2]: > 8 fold

SMILES: CN(C)c1ccc(-c2cc(-c3ccnc(Br)c3)[nH]n2)cc1 [MODAG-001]
- Kd (Aβ1-42 fibrils): 20 ± 10 nM
- Kd (α-syn fibrils): 0.6 ± 0.1 nM

SMILES: CNc1ccc(-c2cc(-c3nccs3)[nH]n2)cc1 [APT-7, N-Methyl-4-(5-(thiazol-2-yl)-1H-pyrazol-3-yl)aniline]
- Ki [1]: 381 ± 217 nM
- Ki [2]: 45 nM and 44.5 nM
- selectivity for α-syn over Aβ [2]: > 20 fold

SMILES: O=C(/C=C/C=C/C=C/c1ccc([N+](=O)[O-])cc1)c1ccc(OCC(O)CF)cc1 (centres unmarked) [FHCL-2]
- Ki (α-synuclein aggregates): 3.4 ± 0.1 nM
- Ki Aβ1-42 (Aβ1-42): no competition

SMILES: [11CH3]Nc1ccc(-c2cc(-c3nc(Br)cs3)[nH]n2)cc1 [[^11C]APT-13]
- stability in human serum (Serum stability assay): did not show evidence of degradation
- SUV heart ([3]; n = 3): ≈ 6
- SUV liver ([3]; n = 3): ≈ 5
- SUV lungs ([3]; n = 3): ≈ 5
- peak SUV in brain ([3]; n = 3, dynamic PET 60 min): 1.94 ± 0.29
- logD [4]: 3.16

SMILES: O=C(/C=C/c1ccc2c(c1)OCO2)c1nccs1 [APT-3, (E)-3-(Benzo[d][1,3]dioxol-5-yl)-1-(thiazol-2-yl)prop-2-en-1-one]
- Ki [2]: > 894 nM

SMILES: Brc1cnc(-c2cc(-c3ccc4c(c3)OCO4)n[nH]2)s1 [APT-9, 2-(3-(Benzo[d][1,3]dioxol-5-yl)-1H-pyrazol-5-yl)-5-bromothiazole]
- Ki [1]: 230 nM
- Ki [2]: 187 nM
- binding affinity to α-syn fibrils (in words) [2]: poor binding

SMILES: Fc1csc(-c2cc(-c3ccc4c(c3)OCO4)n[nH]2)n1 [APT-10, 2-(3-(Benzo[d][1,3]dioxol-5-yl)-1H-pyrazol-5-yl)-4-fluorothiazole]
- Ki [2]: 818.4 ± 1.8 nM

SMILES: FCCNc1ccc(-c2cc(-c3nccs3)[nH]n2)cc1 [APT-6, N-(2-Fluoroethyl)-4-(5-(thiazol-2-yl)-1H-pyrazol-3-yl)aniline]
- Ki [2]: 184 nM
- binding affinity to α-syn fibrils (in words) [2]: modest affinity
